Data taken from patent US20030013656A1, “Pyruvate derivatives” (priority 2001, published 2003).

test system: rat middle cerebral artery occlusion (MCAO) model; assay: Rat middle cerebral artery occlusion (MCAO) model of cerebral ischemia; assay type: in vivo; conditions: 2 h, doses in the range of less than about 1 μg/kg to less than about 10 mg/kg, two hours MCAO, read-out: reduction in total infarct volume
Experimental: Male Wistar rats (Harlan, Ind.) weighing 300-350 g are commonly used in these experiments. Animals are allowed free access to water and commercial rodent diet under standard laboratory conditions. Room temperature is maintained at 20-23° C. and room illumination is on a 12/12-hour light/dark cycle. Animals are acclimatized to the laboratory environment 5 to 7 days prior to the study, and fasted (with free access to water) overnight before surgery.
Anesthesia is maintained by inhalation of 3.0% isoflurane (Aerrane, Front Dodge, Iowa) in […]. The animal's neck is shaved and sterilized before operation. Body temperatures are controlled and maintained at 37.5° C.+/−1 degree via external heating and cooling devices. To lower the body temperature, animals are placed in a cooling chamber that uses ice to cool circulating air. Throughout the study the body temperature is recorded using a temperature transponder (BMDS Inc., Seaford, Del.) implanted subcutaneously at the time of MCAO between the rat shoulder blades, which allows the user to read the body temperature via a pocket scanner (BMDS Inc., Seaford, Del.). The body temperature can also be taken by inserting the temperature probe into the animal's rectum. Body temperature is recorded every hour for 6 hours post-occlusion, but temperature is measured more frequently to facilitate maintaining the animals' normothermic temperature.
Animals are subjected to two hours MCAO using a modified intraluminal filament technique, as follows. A midline incision on the ventral part of the neck is made to expose external and internal carotid arteries. The right external and common carotid arteries are ligated by a suture (silk 5/0, Carlisle Laboratories, Farmers Branch, Tex.) and the right internal artery is temporarily ligated using a microvascular clip (Fine Science Tool Inc., Foster City, Calif.). A small incision is made in the common carotid artery. A nylon filament, its tip rounded by heating, is prepared from a fishing line (Stren Fishing Lines, Wilmington, Del.) and is inserted from the right common carotid artery. The filament is advanced into the internal carotid artery 18-20 mm from the point of bifurcation of internal and external arteries and a suture is tightly ligated around the filament. Two hours post occlusion, animals are re-anesthetized to allow reperfusion for the remaining of the experiment by removal of the filament. C. Drug Administration
Test compounds can be administered by any of a number of routes, such as those described below. Compounds can be administered before, during or after occlusion, as appropriate to the protocol.
One hour after MCAO, the animal is gently held by its tail and observed for forelimb flexion. Then the animal is placed on the floor to be observed for walking pattern; only the animals that score 3 on the Bederson grading system (Table 1) are included in the study.
Twenty-four hours post-MCAO, or longer in some experiments, animals are sacrificed by CO2 asphyxiation (dry ice). The brain is quickly removed from the skull, using standard procedures, rinsed in chilled saline solution, and placed on a rat brain tissue slicer (ASI instrument, MI). Seven 2-mm thick coronal slices are cut from each brain using razor blades. The slices are immersed in 0.9% saline containing 1.0% 2,3,5-triphenyltetrazolume chloride (TTC) (Sigma Chemical Co., St. Louis, Mo.) and incubated in a 37° C. water bath for 30 minutes.
After staining, each 2-mm slice is photographed with a TMC-7 camera (JH Technologies, Ca) which is directly connected to a desktop PC to capture and save the image of each brain slice. This image is used for the measurements of the regions of interest using a computer-based image processing system (Metamorph).
To measure each area, the region of interest is selected using a freehand selection tool, the area is automatically computed by selecting the measure command. […]

Q: Which inhibition in vivo at up to 10 mg/kg does the source give for `COC(=O)C(Cc1ccccc1)NC(=O)C(=O)CSCC(NC(=O)CCC(N)C(=O)O)C(=O)NCC(=O)O` (centres unmarked) [2-Amino-4-{1-(carboxymethyl-carbamoyl)-2-[2-(1-methoxycarbonyl-2-phenyl-ethylcarbamoyl)-2-oxo-ethylsulfanyl]-ethylcarbamoyl}-butyric acid] here?
A: Its inhibition in vivo at up to 10 mg/kg is 20 to 80%.

Q: For `CCOC(=O)C(=O)CSc1nc2ccccc2[nH]1` [3-(1H-Benzoimidazol-2-ylsulfanyl)-2-oxo-propionic acid ethyl ester], which inhibition in vivo at up to 10 mg/kg is on record?
A: The inhibition in vivo at up to 10 mg/kg was 20 to 80%.

Q: For `NC(CCC(=O)NC(CSCC(=NO)C(=O)N1CCCCC1)C(=O)NCC(=O)O)C(=O)O` (centres unmarked) [2-Amino-4-[1-(carboxymethyl-carbamoyl)-2-(2-hydroxyimino-3-oxo-3-piperidin-1-yl-propylsulfanyl)-ethylcarbamoyl]-butyric acid], which inhibition in vivo at up to 10 mg/kg is on record?
A: Its inhibition in vivo at up to 10 mg/kg is 20 to 80%.

Q: Which inhibition in vivo at up to 10 mg/kg does the source give for `CCOC(=O)/C(CSCC(NC(=O)CCC(N)C(=O)O)C(=O)NCC(=O)O)=N\OC` (centres unmarked) [2-Amino-4-[1-(carboxymethyl-carbamoyl)-2-(2-ethoxycarbonyl-2-methoxyimino-ethylsulfanyl)-ethylcarbamoyl]-butyric acid] here?
A: The inhibition in vivo at up to 10 mg/kg was 20 to 80%.

Q: `CCOC(=O)C(CSCC(NC(=O)CCC(N)C(=O)O)C(=O)NCC(=O)O)=NO` (centres unmarked) [2-amino-4-[1-(carboxymethyl-carbamoyl)-2-(2-ethoxycarbonyl-2-hydroxyimino-ethylsulfanyl)-ethylcarbamoyl]-butyric acid] was tested. Which inhibition in vivo at up to 10 mg/kg did it give?
A: The inhibition in vivo at up to 10 mg/kg was 20 to 80%.

Q: With `CCCCOC(=O)C(CSCC(NC(=O)CCC(N)C(=O)O)C(=O)NCC(=O)O)=NOC` (centres unmarked) [2-Amino-4-[2-(2-butoxycarbonyl-2-methoxyimino-ethylsulfanyl)-1-(carboxymethyl-carbamoyl)-ethylcarbamoyl]-butyric acid] as the compound, how does the inhibition in vivo at up to 10 mg/kg read?
A: Its inhibition in vivo at up to 10 mg/kg is 20 to 80%.

Q: For `CCCCCCOC(=O)C(=O)CSCC(NC(=O)CCC(N)C(=O)O)C(=O)NCC(=O)O` (centres unmarked) [2-amino-4-[1-(carboxymethyl-carbamoyl)-2-(2-hexyloxycarbonyl-2-oxo-ethylsulfanyl)-ethylcarbamoyl]-butyric acid], which inhibition in vivo at up to 10 mg/kg is on record?
A: Its inhibition in vivo at up to 10 mg/kg is 20 to 80%.

Q: `NC(CCC(=O)NC(CSCC(=O)C(=O)N1CCCCC1)C(=O)NCC(=O)O)C(=O)O` (centres unmarked) [2-Amino-4-[1-(carboxymethyl-carbamoyl)-2-(2,3-dioxo-3-piperidin-1-yl-propylsulfanyl)-ethylcarbamoyl]-butyric acid] was tested. Which inhibition in vivo at up to 10 mg/kg did it give?
A: Its inhibition in vivo at up to 10 mg/kg is 20 to 80%.

Q: Which inhibition in vivo at up to 10 mg/kg does the source give for `CCOC(=O)C(=O)CSc1nc2cc([N+](=O)[O-])ccc2[nH]1` [3-(5-nitro-1H-benzoimidazol-2-ylsulfanyl)-2-oxo-propionic acid ethyl ester] here?
A: The inhibition in vivo at up to 10 mg/kg was 20 to 80%.

Q: Which inhibition in vivo at up to 10 mg/kg does the source give for `CCOC(=O)C(=O)CSC1=NCCS1` [3-(4,5-dihydro-thiazol-2-ylsulfanyl)-2-oxo-propionic acid ethyl ester] here?
A: Its inhibition in vivo at up to 10 mg/kg is 20 to 80%.

Q: `CCOC(=O)C(=O)CSc1nc2cc(OC)ccc2[nH]1` [3-(5-methoxy-1H-benzoimidazol-2-ylsulfanyl)-2-oxo-propionic acid ethyl ester] was tested. Which inhibition in vivo at up to 10 mg/kg did it give?
A: The inhibition in vivo at up to 10 mg/kg was 20 to 80%.

Q: For `CCOC(=O)C(N)CCC(=O)NC(CSCC(=O)C(=O)O)C(=O)NCC(=O)O` (centres unmarked) [2-amino-4-[1-(carboxymethyl-carbamoyl)-2-(2-carboxy-2-oxo-ethylsulfanyl)-ethylcarbamoyl]-butyric acid ethyl ester], which inhibition in vivo at up to 10 mg/kg is on record?
A: The inhibition in vivo at up to 10 mg/kg was 20 to 80%.

Q: `NC(CCC(=O)NC(CSCC(=O)C(=O)O)C(=O)NCC(=O)O)C(=O)O` (centres unmarked) [2-amino-4-[1-(carboxymethyl-carbamoyl)-2-(2-carboxy-2-oxo-ethylsulfanyl)-ethylcarbamoyl]-butyric acid] was tested. Which inhibition in vivo at up to 10 mg/kg did it give?
A: Its inhibition in vivo at up to 10 mg/kg is 20 to 80%.

Q: For `CCCCOC(=O)C(CSCC(NC(=O)CCC(N)C(=O)O)C(=O)NCC(=O)O)=NOCc1ccccc1` (centres unmarked) [2-Amino-4-[2-(2-benzyloxyimino-2-butoxycarbonyl-ethylsulfanyl)-1-(carboxymethyl-carbamoyl)-ethylcarbamoyl]-butyric acid], which inhibition in vivo at up to 10 mg/kg is on record?
A: The inhibition in vivo at up to 10 mg/kg was 20 to 80%.
